Reference: ChEMBL document CHEMBL1799957, “Cerebrosides and 2-pyridone alkaloids from the halotolerant fungus Penicillium chrysogenum grown in a hypersaline medium” (J Nat Prod, 2011)
≈ marks a conversion by molar mass, not a printed value.

Legend:
A549 = assay: Cytotoxicity against human A549 cells by SRB assay; type: functional, cell-based
Klebsiella aerogenes = assay: Antimicrobial activity against Enterobacter aerogenes by agar dilution method; type: functional
Pseudomonas aeruginosa = assay: Antimicrobial activity against Pseudomonas aeruginosa by agar dilution method; type: functional
Escherichia coli = assay: Antimicrobial activity against Escherichia coli by agar dilution method; type: functional
Staphylococcus aureus = assay: Antimicrobial activity against Staphylococcus aureus by agar dilution method; type: functional
Bacillus subtilis = assay: Antimicrobial activity against Bacillus subtilis by agar dilution method; type: functional
HL-60 = assay: Cytotoxicity against human HL60 cells by MTT assay; type: functional, cell-based
Candida albicans = assay: Antimicrobial activity against Candida albicans by agar dilution method; type: functional
P388 = assay: Cytotoxicity against mouse P388 cells by MTT assay; type: functional, cell-based
HeLa = assay: Cytotoxicity against human HeLa cells by MTT assay; type: functional, cell-based

SMILES	MIC (Klebsiella aerogenes)	MIC (Pseudomonas aeruginosa)	MIC (Escherichia coli)	MIC (Staphylococcus aureus)	MIC (Bacillus subtilis)	MIC (Candida albicans)	IC50 (A549)	IC50 (HL-60)	IC50 (P388)	IC50 (HeLa)
CCC[C@H](O)c1ccc(=O)[nH]c1C [CHRYSOGEDONE A]	> 150 µM	> 150 µM	> 150 µM	> 150 µM	> 150 µM	> 150 µM	> 50 µM	> 50 µM		
CCC[C@H](O)c1ccc(=O)[nH]c1CO [CHRYSOGEDONE B]	> 150 µM	> 150 µM	> 150 µM	> 150 µM	> 150 µM	> 150 µM	> 50 µM	> 50 µM		
CCCCCCC/C=C\CC/C=C/[C@@H](O)[C@H](CO[C@@H]1O[C@H](CO)[C@@H](O)[C@H](O)[C@H]1O)NC(=O)[C@H](O)/C=C/CCCCCCCCCCCCCC [CHRYSOGESIDE A]	> 150 µM	> 150 µM	> 150 µM	> 150 µM	> 150 µM	> 150 µM			> 50 µM	> 50 µM

More lines, main results first:

MIC (Klebsiella aerogenes)	MIC (Pseudomonas aeruginosa)	MIC (Escherichia coli)	MIC (Staphylococcus aureus)	MIC (Bacillus subtilis)	MIC (Candida albicans)	SMILES	IC50 (A549)	IC50 (HL-60)	IC50 (P388)	IC50 (HeLa)
1.72 µM (≈ 1.25 µg/mL)	> 150 µM	> 150 µM	> 150 µM	> 150 µM	> 150 µM	CCCCCCCCCCCCCCC/C=C/[C@@H](O)C(=O)N[C@@H](CO[C@@H]1O[C@H](CO)[C@@H](O)[C@H](O)[C@H]1O)[C@H](O)/C=C/CC/C=C(\C)CCCCCC [CHRYSOGESIDE B]			> 50 µM	> 50 µM
> 150 µM	> 150 µM	> 150 µM	> 150 µM	> 150 µM	> 150 µM	CCCCCCCCCCCCCCC/C=C/[C@@H](O)C(=O)N[C@@H](CO[C@@H]1O[C@H](CO)[C@@H](O)[C@H](O)[C@H]1O)[C@H](O)/C=C/CC/C=C(\C)CCCCC [CHRYSOGESIDE C]			> 50 µM	> 50 µM
> 150 µM	> 150 µM	> 150 µM	> 150 µM	> 150 µM	> 150 µM	CCCCCCCCCCCCCCC/C=C/[C@@H](O)C(=O)N[C@@H](CO[C@@H]1O[C@H](CO)[C@@H](O)[C@H](O)[C@H]1O)[C@H](O)/C=C/CC/C=C(\C)CCCCCCCC [CHRYSOGESIDE D]			> 50 µM	> 50 µM
> 150 µM	> 150 µM	> 150 µM	> 150 µM	> 150 µM	> 150 µM	CCCCCCCCCCCCCCCCC[C@@H](O)C(=O)N[C@@H](CO[C@@H]1O[C@H](CO)[C@@H](O)[C@H](O)[C@H]1O)[C@H](O)/C=C/CC/C=C(\C)CCCCCC [CHRYSOGESIDE E]			> 50 µM	> 50 µM
